Values of other authors in publication PMC10005815 (Journal of Medicinal Chemistry, 2023).
Where two headings read alike, the source gives them in different places. * marks the point of attachment. Cbz = O=C(OCc1ccccc1)*

Columns and labels:
SARS-CoV-1 M^pro = conditions: for Ki: read-out: SARS-CoV-1 M^pro Ki
[1] = rat, in vivo
SARS-CoV-1 [2] = system: SARS-CoV-1
HCoV-229E = conditions: for EC50: read-out: HCoV-229E EC50
RdRp from SARS-CoV-2 = conditions: read-out: Predicted Ki for binding to the protein active site
SARS-CoV-1 [3] = conditions: mouse, in vivo
TMPRSS2 [4] = system: TMPRSS2
TMPRSS2 [5] = target: TMPRSS2; remark: listed apart in the source
[6] = system: SARS-CoV-2 Omicron BA.1 and BA.2; conditions: in vivo
[7] = system: MERS-CoV S protein-mediated cell–cell fusion; conditions: read-out: IC50 in vitro fusion assay (MERS-CoV)
panel of proteases = conditions: read-out: IC50 proteases (selectivity panel)
HCoV-OC43 = conditions: read-out: HCoV-OC43 EC90
[8] = buffer
COVID-19 = conditions: human, in vivo
[9] = system: human mitochondrial RNA polymerase (h-mtRNAP)
[10] = read-out: SARS-CoV-1 M^pro IC50

Compound: COc1cccc2[nH]c(C(=O)N[C@@H](CC(C)C)C(=O)N[C@@H](C[C@@H]3CCNC3=O)C(=O)c3nc4ccccc4s3)cc12 [5h]
- Ki (SARS-CoV-1 M^pro): 6.3 nM
- Ki (SARS-CoV-2 M^pro; read-out: SARS-CoV-2 M^pro Ki): 17.6 nM
- Bioavailability [1]: low bioavailability

Compound: O=C(/C=C/c1ccccc1)N[C@@H](CC1CCCCC1)C(=O)N[C@@H](C[C@@H]1CCNC1=O)C(=O)C(=O)NCc1ccccc1 [11r]
- IC50 (SARS-CoV-1 M^pro; [10]): 710 nM
- IC50 (HCoV-NL63 M^pro): 12300 nM
- EC50 (SARS-CoV-1 [2]; read-out: SARS-CoV-1 EC50): 2100 nM
- S.I. MERS-CoV (CC50/EC50) (MERS-CoV): 1.1 × 10^5
- EC50 (HCoV-229E): 1800 nM

Compound: CC(C)(C)OC(=O)Nc1cccn([C@@H](CC2CC2)C(=O)N[C@@H](C[C@@H]2CCNC2=O)C(=O)C(=O)NCc2ccccc2)c1=O [13b]
- IC50 (SARS-CoV-1 M^pro; [10]): 900 nM
- EC50 (SARS-CoV-1 replicon): 1750 nM
- EC50 (SARS-CoV-2; read-out: SARS-CoV-2 EC50): 4000 nM

Compound: COc1cccc2[nH]c(C(=O)N[C@@H](CC(C)C)C(=O)N[C@@H](C[C@@H]3CCCNC3=O)C(=O)COC(=O)c3c(C)cc(C)nc3C)cc12 [15l]
- IC50 (SARS-CoV-2 M^pro; read-out: SARS-CoV-2 M^pro IC50): 19 nM
- EC50 (HCoV-229E): 48 nM

Compound: O=C[C@H](C[C@@H]1CCNC1=O)NC(=O)[C@H](Cc1ccccc1)NC(=O)c1cc2ccccc2[nH]1 [18p]
- EC50 (SARS-CoV-2; read-out: SARS-CoV-2 EC50): 290 nM

Compound: O=C(O)C1=CC(=C(c2ccc(O)c(C(=O)O)c2)c2ccc(O)c(C(=O)O)c2)C=CC1=O [ATA, Aurintricarboxylic acid]
- Inhibition of mRNA transcription with respect to control (SARS-CoV-1 [2]): more than 1000 fold
- SARS-CoV-1 replication IC50 (SARS-CoV-1 [2]): 200 µg/mL

Compound: Cc1cccc(/C=N/Nc2cc(N3CCOCC3)nc(OCCc3ccccn3)n2)c1 [Apilimod]
- Concentration preventing EVD infection of several cell lines (Ebola): ~0.1 µM

Compound: COc1ccc2c(c1)[C@@H]1C[C@]1(C(=O)N1[C@@H]3CC[C@H]1CN(C)C3)Cn1c-2c(C2CCCCC2)c2ccc(C(=O)NS(=O)(=O)N(C)C)cc21 [Beclabuvir]
- Ki (RdRp from SARS-CoV-2): ~50 nM

Compound: CN(C)C(=O)COC(=O)Cc1ccc(OC(=O)c2ccc(NC(=N)N)cc2)cc1 [Camostat]
- Survival rate to SARS-CoV-1 (SARS-CoV-1 [3]): ~60%
- Reduction of MERS-CoV production (MERS-CoV): 270 fold

Compound: NC1(C(=O)N[C@@H](CCO)c2ccc(Cl)cc2)CCN(c2ncnc3[nH]ccc23)CC1 [Capivasertib]
- 50% cytotoxicity concentration (Vero cells): 82 µM

Compound: CCOC(=O)[C@H]1OC1C(=O)N[C@@H](CC(C)C)C(=O)NCCC(C)C (stereo partly drawn) [E64D]
- Reduction in the entry of SARS-CoV-2 PsV (SARS-CoV-2 PsV): 92.5%

Compound: N=C(N)Nc1ccc(C(=O)O)cc1 [GBA, 4-guanidinobenzoic acid]
- TMPRSS2 inhibition (TMPRSS2 [4]): inactive

Compound: N=C(N)c1cccc(C[C@H](NS(=O)(=O)c2cccc(-c3ccc(Cl)cc3Cl)c2)C(=O)N2CCC(CCN)CC2)c1 [I-432]
- Ki (TMPRSS2 [5]): 0.9 nM

Compound: CC(C)C(=O)OC[C@H]1O[C@@H](n2ccc(NO)nc2=O)[C@H](O)[C@@H]1O [Molnupiravir]
- Effect on virus titers [6]: only reduced the lung virus titers
- Efficacy in inhibiting SARS-CoV-2 replication relative to remdesivir (SARS-CoV-2): 5–10 fold

Compound: Cc1cc(C(=O)N[C@@H](C)C(=O)N[C@H](C(=O)N[C@@H](CC(C)C)C(=O)N[C@H](/C=C/C(=O)OCc2ccccc2)C[C@@H]2CCNC2=O)C(C)C)no1 [N3]
- Ki (HCoV-229E M^pro): 1670 nM

Compound: N=C(N)Nc1ccc(C(=O)Oc2ccc3cc(C(=N)N)ccc3c2)cc1 [Nafamostat]
- IC50 [7]: ~1 nM

Compound: COc1cccc2[nH]c(C(=O)N[C@@H](CC(C)C)C(=O)N[C@@H](C[C@@H]3CCNC3=O)C(=O)CO)cc12 [PF-00835231]
- EC50 (SARS-CoV-1 [2]; read-out: SARS-CoV-1 EC50): 4800 nM
- IC50 (panel of proteases): > 10000 nM

Compound: CC(C)(C)[C@H](NC(=O)C(F)(F)F)C(=O)N1C[C@H]2[C@@H]([C@H]1C(=O)N[C@H](C#N)C[C@@H]1CCNC1=O)C2(C)C [PF-07321332]
- Effect on virus titers [6]: only reduced the lung virus titers

Compound: Cn1cnc(Cn2c(=O)[nH]/c(=N\c3cc4cn(C)nc4cc3Cl)n(Cc3cc(F)c(F)cc3F)c2=O)n1 [S-217622]
- EC50 (SARS-CoV-1 [2]; read-out: SARS-CoV-1 EC50): 210 nM
- Effect on virus titers [6]: additionally decreased the virus titers in the nasal turbinates
- EC50 (SARS-CoV-2; read-out: SARS-CoV-2 WT strain EC50): 370 nM
- EC50 (MERS-CoV; read-out: MERS-CoV EC50): 1400 nM
- EC50 (HCoV-229E): 5500 nM
- EC90 (HCoV-OC43): 74 nM
- CC50 (Vero E6/TMPRSS2 cells): > 100000 nM

Compound: CCC(C)(C)NC(=O)C(c1ccn(C)c1)N(C(=O)Cn1nnc2ccccc21)c1ccc(NC(C)=O)cc1 (stereo not drawn) [SID24808289]
- IC50 (SARS-CoV-1 M^pro; [10]): 6200 nM
- IC50 (SARS-CoV-1 PL^pro): > 60000 nM

Compound: CCc1ccccc1NC(=O)CSC(=O)NNC(=O)[C@H](Cc1c[nH]c2ccccc12)NC(=O)OC(C)(C)C [SID-26681509]
- Decrease of SARS-CoV-2 pseudovirion entry (SARS-CoV-2 PsV): about 76%

Compound: CC(OC(C)(C)C)[C@H](NC(=O)OCc1ccccc1)C(=O)N[C@@H](CC1CCCCC1)C(=O)N[C@H](C=O)C[C@@H]1CCNC1=O (stereo partly drawn) [TG-0205221]
- Ki (SARS-CoV-1 M^pro): 53 nM
- Ki (HCoV-229E M^pro): 68 nM

Compound: COc1ccc(C(=O)Nc2cccc(C(F)(F)F)c2)cc1Nc1nc(-c2cccnc2)c2[nH]ccc2n1 [XMU-MP-7]
- Kd (Akt): 6.4 nM

Compound: CN(C)CCCSc1ccccc1NC(=O)/C=C/c1ccccc1 [cinanserin]
- IC50 (SARS-CoV-1 M^pro; read-out: M^pro IC50): ~5000 nM
- IC50 (HCoV-229E; read-out: HCoV-229E IC50 (antiviral assay)): 19000 nM

Compound: O=C(On1nnc2ccccc21)c1ccc2[nH]ccc2c1 [compound 8]
- Ki (SARS-CoV-1 M^pro): 7.5 nM

Compound: O=C(Oc1cncc(Cl)c1)c1cccc2[nH]ccc12 [compound 10]
- IC50 (SARS-CoV-1 M^pro; [10]): 30 nM
- EC50 (SARS-CoV-1 [2]; read-out: SARS-CoV-1 EC50): 6900 nM

Compound: O=C(Oc1cncc(Br)c1)c1ccco1 [compound 39]
- IC50 (SARS-CoV-1 M^pro; [10]): 50 nM
- T1/2 [8]: [drawing 13] 39 SARS-CoV-1 M^pro IC50= 50 nM T1/2 = 119 h, phosphate buffer pH= 7.5

Compound: CCOc1cc2ncc(C#N)c(Nc3ccc(F)c(Cl)c3)c2cc1NC(=O)/C=C/CN(C)C [pelitinib]
- EC50 (SARS-CoV-2; read-out: EC50 (antiviral)): 1250 nM

Compound: CCC(CC)COC(=O)[C@H](C)N[P@](=O)(OC[C@H]1O[C@@](C#N)(c2ccc3c(N)ncnn23)[C@H](O)[C@@H]1O)Oc1ccccc1 [remdesivir, Remdesivir]
- Reduction of hospitalization compared to placebo (COVID-19): 87%
- IC50 (SARS-CoV-2; read-out: SARS-CoV-2 infection IC50): 770 nM
- CC50 (Vero E6 cells): > 100000 nM

Compound: N#C[C@@]1(c2ccc3c(N)ncnn23)O[C@H](COP(=O)(O)OP(=O)(O)OP(=O)(O)O)[C@@H](O)[C@H]1O [remdesivir-TP]
- Selectivity with respect to ATP [9]: up to 500 fold

Compound: Cbz-Val-Phe-aldehyde [MDL28170]
- EC50 (SARS-CoV-1 [2]; read-out: EC50 neutral red uptake assay): 500 nM
